{
  "source": "patent US11033538B2",
  "about": "“Dosing regimens for the treatment of lysosomal storage diseases using pharmacological chaperones” (Amicus Therapeutics, Inc., priority 2007, dated 2021)",
  "key": {"[1]": {"tested_on": "patients with Fabry disease", "test": "Example 15, Gastrointestinal Symptoms Rating Scale", "assay_type": "in vivo, human", "method": "Patient-reported outcomes were assessed using the Gastrointestinal-Symptoms-Rating-Scale (GSRS), Short Form-36v2TM and Brief-Pain-Inventory-Pain-Severity-Component."}, "[2]": {"tested_on": "patients with Fabry disease", "test": "Example 15, renal function assessment", "assay_type": "in vivo, human", "method": "Annualized rates of change (mL/min/1.73 m^2/year) were calculated using Chronic Kidney Disease Epidemiology Collaboration-eGFRCKD-EPI) and measured iohexol clearance-mGFRiohexol)."}, "[3]": {"tested_on": "GL-3", "test": "Example 15, 24-hour urine GL-3", "assay_type": "in vivo, human", "method": "Plasma lyso-Gb3 and 24-hour urine GL-3 were analyzed by liquid chromatography-mass-spectroscopy using a novel stable isotope-labeled internal standard, 13C6-lyso-Gb3 (lower-limit-of-quantification: 0.200 ng/mL, 0.254 nmol/L)."}, "[4]": {"molecular_target": "T1, α-GAL (Homo sapiens, UniProt P06280)", "T1 construct": "α-GAL activity was calculated in white blood cells (WBC); endogenous in cells; host or cells: white blood cells of healthy male volunteers", "T1 sequence (P06280 32-429)": "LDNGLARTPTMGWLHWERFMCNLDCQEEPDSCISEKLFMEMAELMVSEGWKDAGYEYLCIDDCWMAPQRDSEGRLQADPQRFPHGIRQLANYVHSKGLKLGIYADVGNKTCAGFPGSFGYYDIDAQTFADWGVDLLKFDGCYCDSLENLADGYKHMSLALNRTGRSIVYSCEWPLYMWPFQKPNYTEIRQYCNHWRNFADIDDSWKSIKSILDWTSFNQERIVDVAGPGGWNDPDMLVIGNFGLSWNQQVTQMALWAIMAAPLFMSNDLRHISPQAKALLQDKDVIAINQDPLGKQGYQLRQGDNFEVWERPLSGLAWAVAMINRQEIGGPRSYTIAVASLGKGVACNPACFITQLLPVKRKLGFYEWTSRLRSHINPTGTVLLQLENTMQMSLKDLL", "assay_type": "in vivo", "method": "A multiple-dose Phase I trial was conducted and consisted of a total of 16 healthy volunteers divided into two groups of eight subjects. […] All subjects in one group received placebo or 50 mg twice a day for seven days, and all subjects in the other group received placebo or 150 mg twice a day for seven days. Subjects were evaluated at the beginning of the study, on Day 7 after seven days of treatment and on Day 14 after a seven day washout period.\nBlood samples (10 mL each) were collected in blood collection tubes containing EDTA and WBC extracted before dosing and at the following times thereafter: 100 hours, 150 hours, and 336 hours. Samples were treated as described above, and WBC α-GAL enzymatic activity levels were determined as described in Desnick, R. J. (ed) Enzyme therapy in genetic diseases. Vol 2. Alan R Liss, New York, pp 17-32. Statistical Analysis. Safety data including laboratory evaluations, physical exams, adverse events, ECG monitoring and vital signs assessments were summarized by treatment group and point of time of collection. Descriptive statistics (arithmetic mean, standard deviation, median, minimum and maximum) were calculated for quantitative safety data as well as for the difference to baseline. Frequency counts were compiled for classification of qualitative safety data. In addition, a shift table describing out of normal range shifts was provided for clinical laboratory results. A normal-abnormal shift table was also presented for physical exam results and ECGs."}, "[5]": {"tested_on": "GL-3", "test": "Example 15, podocyte GL-3 by electron microscopy stereology", "assay_type": "in vivo, human", "conditions": "after 6 months of DGJ", "text": "This decrease correlated with % reduction in podocyte GL-3 volume (r=0.79, p=0.02). […] The sensitive quantitative method used can assess treatment efficacy for this important cell type over a relatively short period of time. This method is also more sensitive than the methods described above in the kidney analysis of Example 5 (as shown in FIG. 14), as well as the methods earlier in this example relating to qualitative assessment of podocyte GL-3."}, "[6]": {"tested_on": "patients with Fabry disease", "test": "Example 15, safety analysis and adverse events", "assay_type": "in vivo, human", "text": "Randomized patients receiving ≥1 dose were included in the safety analysis, which comprised vital signs, physical exams, electrocardiograms, clinical labs, and adverse events."}, "[7]": {"tested_on": "Fabry patients", "test": "Example 6, self-reported Fabry symptoms", "assay_type": "in vivo, human", "text": "Patients self-reported changes in symptoms at the end of 12 or 24 week treatment period to evaluate, inter alia, reduction in acroparaesthesia. This may be evidence of clearance of GL-3 in the microvasculature of peripheral nerve cells."}, "[8]": {"conditions": "All Patients, OLE DGJ treatment, (95% CI)"}, "[9]": {"conditions": "Patients with Symptoms at BL, OLE DGJ treatment, (95% CI)"}, "[10]": {"conditions": "Patients with Symptoms at BL, Stage 1"}, "[11]": {"conditions": "up to 24 months of DGJ, mITT-suitable"}, "[12]": {"conditions": "open-label-extension, 6/57 patients"}},
  "note": "Read-outs that look alike come from different tables or passages of the source. Marks after values point to notes of the source that are not given here.",
  "data": [
    {"smiles": "OC[C@H]1NC[C@H](O)[C@@H](O)[C@H]1O", "note": "[DGJ, (2R,3S,4R,5S)-2-(hydroxymethyl) piperdine-3,4,5-triol]", "values": [
      {"measurement": "GSRS Diarrhea, change from Baseline to Month 6", "setting": "[1]; All Patients, ITT-suitable, Stage 1 double-blind, p = 0.03", "result": "−0.3*^2"},
      {"measurement": "GSRS Abdominal Pain, change to Month 24", "setting": "[1]; [8]", "result": "−0.2 (−0.5, +0.1)"},
      {"measurement": "GSRS Constipation, change to Month 24", "setting": "[1]; [8]", "result": "−0.4 (−0.7, +0.0)*^5"},
      {"measurement": "GSRS Diarrhea, change from Baseline (DGJ) or Month 6 (Placebo) to Month 24", "setting": "[1]; [8]", "result": "−0.5 (−0.9, −0.1)*^4"},
      {"measurement": "GSRS Indigestion, change to Month 24", "setting": "[1]; [8]", "result": "−0.4 (−0.7, −0.04)*^4"},
      {"measurement": "GSRS Reflux, change to Month 24", "setting": "[1]; [8]", "result": "−0.2 (−0.5, 0.2)"},
      {"measurement": "GSRS Abdominal Pain, change from Baseline to Month 6", "setting": "[1]; All Patients, Stage 1", "result": 0.0},
      {"measurement": "GSRS Constipation, change from Baseline to Month 6", "setting": "[1]; All Patients, Stage 1", "result": "+0.1"},
      {"measurement": "GSRS Indigestion, change from Baseline to Month 6", "setting": "[1]; All Patients, Stage 1", "result": "−0.1"},
      {"measurement": "GSRS Reflux, change from Baseline to Month 6", "setting": "[1]; All Patients, Stage 1", "result": "−0.1"},
      {"measurement": "GSRS Abdominal Pain, change to Month 24", "setting": "[1]; [9]", "result": "−0.2 (−0.6, 0.1)"},
      {"measurement": "GSRS Constipation, change to Month 24", "setting": "[1]; [9]", "result": "−0.5 (−1.1, +0.0)*^5"},
      {"measurement": "GSRS Diarrhea, change to Month 24", "setting": "[1]; [9]", "result": "−1.0 (−1.5, −0.4)*^4"},
      {"measurement": "GSRS Indigestion, change to Month 24", "setting": "[1]; [9]", "result": "−0.5 (−0.8, −0.06)*^4"},
      {"measurement": "GSRS Reflux, change to Month 24", "setting": "[1]; [9]", "result": "−0.6 (−1.5, 0.2)"},
      {"measurement": "GSRS Abdominal Pain, change from Baseline to Month 6", "setting": "[1]; [10]", "result": "−0.1"},
      {"measurement": "GSRS Constipation, change from Baseline to Month 6", "setting": "[1]; [10]", "result": "+0.2"},
      {"measurement": "GSRS Diarrhea, change from Baseline to Month 6", "setting": "[1]; [10]", "result": "−0.6"},
      {"measurement": "GSRS Indigestion, change from Baseline to Month 6", "setting": "[1]; [10]", "result": "−0.2"},
      {"measurement": "GSRS Reflux, change from Baseline to Month 6", "setting": "[1]; Patients with Symptoms at BL, Stage 1, p = 0.047", "result": "−0.6*^3"},
      {"measurement": "eGFRCKD-EPI or mGFRIohexol changes, DGJ vs placebo", "setting": "[2]; baseline to month 6, mITT-suitable", "result": "no statistically significant differences"},
      {"measurement": "annualized change in eGFRCKD-EPI (±SEM)", "setting": "[2]; [11]", "result": "−0.30±6.6", "unit": "mL/min/1.73 m^2"},
      {"measurement": "annualized change in mGFRiohexol (±SEM)", "setting": "[2]; [11]", "result": "−1.51±1.33", "unit": "mL/min/1.73 m^2"},
      {"measurement": "mean change in 24-hour urine GL-3 substrate (±SEM) concentration", "setting": "[3]; baseline to month 6, suitable mutants, p=0.44 vs placebo", "result": "−361±169", "unit": "ng/mg creatinine"},
      {"measurement": "24-hour urine GL-3 substrate (±SEM) concentration reached", "setting": "[3]; month 6, suitable mutants", "result": "555±151", "unit": "ng/mg creatinine"},
      {"measurement": "inhibition of WBC α-GAL enzymatic activity", "setting": "[4]; 50 mg b.i.d. or 150 mg b.i.d.", "result": "did not inhibit WBC α-GAL enzymatic activity"},
      {"measurement": "WBC α-GAL enzymatic activity", "setting": "[4]; 50 mg b.i.d., 100 hours", "result": 120, "unit": "% pre-dose levels"},
      {"measurement": "WBC α-GAL enzymatic activity", "setting": "[4]; 50 mg b.i.d., 150 hours", "result": 130, "unit": "% pre-dose levels"},
      {"measurement": "WBC α-GAL enzymatic activity", "setting": "[4]; 50 mg b.i.d., 336 hours", "result": 145, "unit": "% pre-dose levels"},
      {"measurement": "WBC α-GAL enzymatic activity", "setting": "[4]; 150 mg b.i.d., 100 hours", "result": 150, "unit": "% pre-dose levels"},
      {"measurement": "WBC α-GAL enzymatic activity", "setting": "[4]; 150 mg b.i.d., 150 hours", "result": 185, "unit": "% pre-dose levels"},
      {"measurement": "WBC α-GAL enzymatic activity", "setting": "[4]; 150 mg b.i.d., 336 hours", "result": 185, "unit": "% pre-dose levels"},
      {"measurement": "GLA levels in white blood cell lysates", "setting": "[4]; 50 and 150 mg twice daily for 7 days", "result": "increased GLA levels"},
      {"measurement": "increase in levels of α-GAL in white blood cells", "setting": "[4]; highest dose level (150 mg twice a day for seven days), healthy volunteers", "result": "~2", "unit": "fold"},
      {"measurement": "persistence of the α-GAL increase", "setting": "[4]; highest dose level, after the last dose", "result": "maintained for at least seven days after the last dose"},
      {"measurement": "mean±SD V(Inc/PC), GL-3 inclusion volume per podocyte", "setting": "[5]; baseline 2568±1408, N=8 males, p=0.0182", "result": "1282±792", "unit": "μm^3"},
      {"measurement": "mean podocyte volume", "setting": "[5]; baseline 6680±2835, p=0.004", "result": "3525±2084", "unit": "μm^3"},
      {"measurement": "patients with serious adverse events", "setting": "[6]; Stage 1, DGJ arm", "result": 2, "unit": "patients"},
      {"measurement": "nasopharyngitis frequency", "setting": "[6]; Stage 1, DGJ, 6/34 patients", "result": 18, "unit": "%"},
      {"measurement": "headache frequency", "setting": "[6]; Stage 1, DGJ, 12/34 patients", "result": 35, "unit": "%"},
      {"measurement": "procedural pain frequency", "setting": "[6]; Stage 2, 7/63 patients, related to kidney biopsies", "result": 11, "unit": "%"},
      {"measurement": "headache frequency", "setting": "[6]; Stage 2, 9/63 patients", "result": 14, "unit": "%"},
      {"measurement": "serious adverse events possibly related to DGJ", "setting": "[6]; fatigue and paresthesia, same patient, months 12-24, resolved", "result": "Two serious adverse events were assessed as possibly related to DGJ"},
      {"measurement": "deaths", "setting": "[6]; in vivo", "result": "No deaths were reported"},
      {"measurement": "discontinuation due to adverse events", "setting": "[6]; in vivo", "result": "No adverse events led to DGJ discontinuation"},
      {"measurement": "severity of adverse events", "setting": "[6]; in vivo", "result": "Most adverse events were mild or moderate in severity"},
      {"measurement": "vital sign, physical findings, laboratory and ECG parameters", "setting": "[6]; in vivo", "result": "did not reveal any clinically relevant effect of DGJ"},
      {"measurement": "bronchitis frequency", "setting": "[6]; [12]", "result": 11, "unit": "%"},
      {"measurement": "headache frequency", "setting": "[6]; [12]", "result": 11, "unit": "%"},
      {"measurement": "proteinuria frequency", "setting": "[6]; open-label-extension, 9/57 patients", "result": 16, "unit": "%"},
      {"measurement": "patients whose 24-hour urine protein remained stable during DGJ treatment", "setting": "[6]; patients with baseline proteinuria <300 mg/24-h", "result": "23/28"},
      {"measurement": "self-reported symptoms", "setting": "[7]; four female expected good responders", "result": "decreases in pain"},
      {"measurement": "self-reported symptoms", "setting": "[7]; seven male good responders", "result": "improved gastrointestinal function and a decrease in pain"}
    ]}
  ]
}
